Data reported in patent US8008331B2, “Benzothiazol-2-one derivatives as lipase and phospholipase inhibitors” (Sanofi-Aventis, priority 2005, dated 2011).

Target: T1, endothelial lipase (EL) (Homo sapiens, UniProt Q9Y5X9)
T1 construct: made in house; host or cells: recombinant cell lines (CHO, HEK293); concentrated conditioned medium
T1 sequence (Q9Y5X9 21-500): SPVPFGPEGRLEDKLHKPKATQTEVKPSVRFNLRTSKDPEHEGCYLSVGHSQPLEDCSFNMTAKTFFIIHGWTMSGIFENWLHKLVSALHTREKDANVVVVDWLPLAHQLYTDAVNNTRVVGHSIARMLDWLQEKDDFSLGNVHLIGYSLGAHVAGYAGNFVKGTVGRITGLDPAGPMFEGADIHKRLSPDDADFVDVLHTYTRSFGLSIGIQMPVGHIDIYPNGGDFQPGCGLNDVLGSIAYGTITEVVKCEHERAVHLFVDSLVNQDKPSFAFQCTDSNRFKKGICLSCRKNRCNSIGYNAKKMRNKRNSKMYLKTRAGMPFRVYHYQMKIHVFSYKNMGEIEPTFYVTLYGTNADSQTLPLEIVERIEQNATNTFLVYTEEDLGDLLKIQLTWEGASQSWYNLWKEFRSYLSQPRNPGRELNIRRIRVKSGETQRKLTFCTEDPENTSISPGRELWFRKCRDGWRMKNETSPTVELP
Assay: Further EL inhibition assay
Assay type: biochemical
Settings: phospholipase substrate (Bodipy-labelled phosphocholine), 37° C., 90 minutes, EL from conditioned medium of recombinant cell lines (CHO, HEK293)
Description: EL is released as secretory protein in high concentration into cell culture medium (conditioned medium) by recombinant cell lines (CHO, HEK293). This is employed as enzyme solution after concentration.
The enzymatic activity is reduced as a function of the inhibitor concentration used, and the inhibitor concentration at which a half-maximum enzymatic activity is observed is called IC50.
The phospholipase-specific substrate 1,2-bis(4,4-difluoro-5,7-dimethyl-4-bora-3a,4a-diaza-s-indacene-3-undecanoyl)-sn-glycero-3-phosphocholine, (manufacturer Molecular Probes) is used to characterize the enzymatic activity of endothelial lipase and the effect of inhibitors. Hydrolysis of the A1 ester linkage of this phospholipid by the enzyme liberates the fluorescent dye Bodipy which can be detected after separation by thin-layer chromatography on an HPTLC plate (silica gel 60, Merck) or directly in the reaction vessel by measuring the fluorescence.
The substrate solution is prepared by dissolving 100 μg of 1,2-bis(4,4-difluoro-5,7-dimethyl-4-bora-3a,4a-diaza-s-indacene-3-undecanoyl)-sn-glycero-3-phosphocholine (manufacturer Molecular Probes) in 100 μl of DMSO and taking up in 2.4 mg of tripalmitin (Sigma) in 393 μl of chloroform which comprises 20 mg/ml DOP-choline (1,2-dioleoyl-sn-glycero-3-phosphocholine). 39.3 μl of this lipid mixture are transferred into a fresh reaction vessel, and the solvent is evaporated off. The lipid mixture is dissolved in 4 ml of 200 mM TRIS-HCl, 150 mM sodium chloride, pH=7.4, by sonication twice. The subsequent enzymic reaction takes place at 37° C. for 90 minutes. For this purpose, 20 μl of the substrate solution are incubated with 2 μl of inhibitor of appropriate concentration (dissolved in 10% DMSO, using 10% strength DMSO solution for control) and 2 μl of enzyme solution (conditioned medium). The 4 μl of the assay mixture are loaded onto an HPTLC plate (silica gel 60, Merck), and the liberated fluorescent dye is separated for detection with an eluent (diethyl ether:petroleum benzine:acetic acid [78:22:1]). After evaporation of the eluent, the plate is read in a fluorescence scanner. An increased liberation of the fluorescent dye in the uninhibited reaction is to be observed as a measure of the enzymic activity.

Row | SMILES | IC50
1 | CCCCCCNC(=O)n1c(=O)sc2ccccc21 [Example 1, 2-Oxobenzothiazole-3-hexylcarboxamide] | 0.16 µM
2 | CCCCCCCNC(=O)n1c(=O)sc2ccccc21 [Example 2, 2-Oxobenzothiazole-3-heptylcarboxamide] | 0.051 µM
3 | Cc1ccccc1CNC(=O)n1c(=O)sc2ccccc21 [Example 3, 2-Oxobenzothiazole-3-(2-methylbenzyl)carboxamide] | 0.052 µM
4 | CCCCCCCNC(=O)n1c(=O)sc2ccc(Cl)cc21 [Example 6, 5-Chloro-2-oxobenzothiazole-3-heptylcarboxamide] | 0.014 µM

Next, values leading:

Row | IC50 | SMILES
5 | 0.215 µM | Cc1cccc(CNC(=O)n2c(=O)sc3ccccc32)c1 [Example 4, 2-Oxobenzothiazole-3-(3-methylbenzyl)carboxamide]
6 | 0.435 µM | CCCCCCNC(=O)n1c(=O)sc2cc(Br)ccc21 [Example 5, 6-Bromo-2-oxobenzothiazole-3-hexylcarboxamide]
7 | 0.12 µM | CCCCCCNC(=O)n1c(=O)sc2ccc(C(F)(F)F)cc21 [Example 7, 2-Oxo-5-trifluoromethylbenzothiazole-3-hexylcarboxamide]
